In paper PMC9445081, “Structural basis for recognition of N-formyl peptides as pathogen-associated molecular patterns” (Nature Communications, 2022):
Positions count from the first letter of the chain named.

Assays:
Type in all cases: cell-based
FPR1 F291A = target: T1, FPR1 F291A (Homo sapiens, UniProt P21462, F291A); assay: cAMP inhibition assay, FPR1 F291A
T1 construct: expressed in transfected cells; host or cells: HeLa cells, transient, pcDNA3.1(+)
T1 sequence (P21462 1-350 F291A): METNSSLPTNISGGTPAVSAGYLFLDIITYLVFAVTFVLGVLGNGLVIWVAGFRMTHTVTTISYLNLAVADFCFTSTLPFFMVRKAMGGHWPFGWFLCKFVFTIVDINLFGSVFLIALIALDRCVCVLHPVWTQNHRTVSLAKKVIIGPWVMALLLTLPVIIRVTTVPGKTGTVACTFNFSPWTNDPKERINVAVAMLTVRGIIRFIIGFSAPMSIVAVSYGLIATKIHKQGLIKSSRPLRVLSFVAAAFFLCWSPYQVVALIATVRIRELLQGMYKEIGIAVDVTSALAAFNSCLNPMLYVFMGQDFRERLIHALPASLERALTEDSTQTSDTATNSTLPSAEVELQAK
From the text: (§1) FPR1 cDNA in the pcDNA3.1(+) vector (Invitrogen) was used as a template for gene manipulation. The mutations of FPR1 were introduced in the receptor through overlap extension PCR with elaborately designed primers (GENEWIZ, Suzhou, China). The sequences of the primers were listed in Supplementary Table 2. Two fragments of FPR1 (separated at mutated positions) were assembled into pre-cut pcDNA3.1(+) vectors with the ClonExpress Ultra One Step Cloning Kit (Vazyme Biotech, C115). Plasmids with FPR1 mutations were confirmed by DNA sequencing (GENEWIZ).
(§2) For functional studies, FPR1 and its mutants were expressed in HeLa cells as above. The cells were resuspended in HBSS buffer plus 5 mM HEPES, 0.1% BSA (w/v) and 0.5 mM 3-isobutyl-1-methylxanthine and seeded into 384-well plates. […] AG-14 was synthesized by Sungening Biotechnology (Shenzhen, China). Different concentrations of the ligands were prepared plus a fixed dose of forskolin with the buffer above. […] Intracellular cAMP levels were measured with the LANCE Ultra cAMP kit (PerkinElmer, TRF0263) following the manufacturer’s instructions. […] Intracellular cAMP levels were calculated according to the TR-FRET signals of the samples and cAMP standards.
(§3) The data were analyzed with Prism 6.0 (GraphPad, San Diego, CA). For dose-response analysis, the curves were plotted with the log[agonist] vs. response equation (three parameters) in the software. Data points were presented as the percentages (mean ± SEM) of the maximal cAMP level for each construct, from at least three independent experiments, as indicated in figure legends. The pEC50 values were the negative logarithm of the EC50 values, which were obtained from the dose-response curves. For cell surface expression, data points were presented as the percentages (mean ± SEM) of the flow cytometry fluorescence signals of WT FPR1. For statistical comparison, a p-value of 0.05 or lower is considered statistically significant.

FPR1 R201A = target: T2, FPR1 R201A (Homo sapiens, UniProt P21462, R201A); assay: cAMP inhibition assay, FPR1 R201A
T2 construct: expressed in transfected cells; host or cells: HeLa cells, transient, pcDNA3.1(+)
T2 sequence (P21462 1-350 R201A): T1 sequence (P21462 1-350 F291A) with R201A, A291F
From the text: as §1
as §2, with “China).” for “China). Different concentrations of the ligands were prepared plus a fixed dose of forskolin with the buffer above.”
(§4) The data were analyzed with Prism 6.0 (GraphPad, San Diego, CA). […] For cell surface expression, data points were presented as the percentages (mean ± SEM) of the flow cytometry fluorescence signals of WT FPR1. […]

FPR1 W254A = target: T3, FPR1 W254A (Homo sapiens, UniProt P21462, W254A); assay: cAMP inhibition assay, FPR1 W254A; conditions: inhibiting forskolin-elevated cAMP, HeLa cells, read-out: pEC50, mean ± SEM (converted)
T3 construct: expressed in transfected cells; host or cells: HeLa cells, transient, pcDNA3.1(+)
T3 sequence (P21462 1-350 W254A): T1 sequence (P21462 1-350 F291A) with W254A, A291F
From the text: as §1
as §2, with “China).” for “China). Different concentrations of the ligands were prepared plus a fixed dose of forskolin with the buffer above.”
as §4

FPR1 Y257A = target: T4, FPR1 Y257A (Homo sapiens, UniProt P21462, Y257A); assay: cAMP inhibition assay, FPR1 Y257A; conditions: inhibiting forskolin-elevated cAMP, HeLa cells, read-out: pEC50, mean ± SEM (converted)
T4 construct: expressed in transfected cells; host or cells: HeLa cells, transient, pcDNA3.1(+)
T4 sequence (P21462 1-350 Y257A): T1 sequence (P21462 1-350 F291A) with Y257A, A291F
From the text: as §1
as §2, with “China).” for “China). Different concentrations of the ligands were prepared plus a fixed dose of forskolin with the buffer above.”
as §4

FPR1 R205A = target: T5, FPR1 R205A (Homo sapiens, UniProt P21462, R205A); assay: cAMP inhibition assay, FPR1 R205A
T5 construct: expressed in transfected cells; host or cells: HeLa cells, transient, pcDNA3.1(+)
T5 sequence (P21462 1-350 R205A): T1 sequence (P21462 1-350 F291A) with R205A, A291F
From the text: as §1, §2, §3

FPR1 R84A = target: T6, FPR1 R84A (Homo sapiens, UniProt P21462, R84A); assay: cAMP inhibition assay, FPR1 R84A; conditions: inhibiting forskolin-elevated cAMP, HeLa cells, read-out: pEC50, mean ± SEM (converted)
T6 construct: expressed in transfected cells; host or cells: HeLa cells, transient, pcDNA3.1(+)
T6 sequence (P21462 1-350 R84A): T1 sequence (P21462 1-350 F291A) with R84A, A291F
From the text: as §1, §2, §3

FPR1 WT = target: T7, FPR1 WT (Homo sapiens, UniProt P21462); assay: cAMP inhibition assay, WT FPR1
T7 construct: expressed in transfected cells; host or cells: HeLa cells, transient, pcDNA3.1(+)
T7 sequence (P21462 1-350): T1 sequence (P21462 1-350 F291A) with A291F
From the text: as §1
as §2, with “China).” for “China). Different concentrations of the ligands were prepared plus a fixed dose of forskolin with the buffer above.”
as §4

Structure (SMILES): COc1cc(/C=N/NC(=O)c2ccc3c(c2)OCO3)ccc1OCc1ccccc1 [AG-14]
- EC50 (FPR1 F291A): 2 µM
- EC50 (FPR1 R201A): 1.58 µM
- EC50 (FPR1 W254A): 5.01 µM
- EC50 (FPR1 Y257A): 2.51 µM
- EC50 (FPR1 R205A): 1 µM
- EC50 (FPR1 R84A): 1.26 µM
- EC50 (FPR1 WT): 0.398 µM
